Test results: BigSolDB 2.1

O=C(O)/C=C/c1ccc(Cl)cc1
solubility (mole fraction)
Settings	283.15 K	288.15 K	293.15 K	298.15 K	303.15 K	308.15 K	313.15 K	318.15 K	323.15 K
in 1,4-dioxane	–	0.00826	0.0094	0.0106	0.0118	0.0132	0.0148	0.0158	0.018
in acetone	0.00214	0.00248	0.00303	0.00334	0.00388	0.00434	0.00509	0.00556	0.00654
in acetonitrile	0.000318	0.000351	0.000365	0.000425	0.000468	0.000515	0.000622	0.000803	0.00105
in ethanol	0.00136	0.00166	0.00184	0.00207	0.00238	0.00265	0.00317	0.00363	0.004
in ethyl acetate	0.00159	0.00166	0.0019	0.00214	0.00242	0.00266	0.00315	0.00379	0.00442
in isobutanol	0.00102	0.00125	0.00154	0.00177	0.00195	0.00223	0.00244	0.00282	0.00325
in isopropanol	0.00118	0.00141	0.00165	0.0019	0.00215	0.00255	0.0029	0.00359	0.00454
in methanol	0.00112	0.00123	0.00136	0.00155	0.00172	0.00187	0.00206	0.00233	0.00251
in methyl acetate	0.00142	0.00173	0.00201	0.00231	0.00262	0.00298	0.0033	0.00355	0.0038
in n-butanol	0.00123	0.00154	0.00184	0.00219	0.00249	0.00283	0.00314	0.0037	0.00427
in n-propanol	0.0012	0.00146	0.00177	0.002	0.00234	0.00266	0.00308	0.00361	0.00432
in water	5.3e-06	6.88e-06	8.16e-06	9.38e-06	1.16e-05	1.26e-05	1.51e-05	1.74e-05	2.06e-05
